Assay results published in paper PMC9765450, “Structures of Fission Yeast Inositol Pyrophosphate Kinase Asp1 in Ligand-Free, Substrate-Bound, and Product-Bound States” (mBio, 2022).

Molecular target: T1, Asp1-(1-385) kinase domain (Schizosaccharomyces pombe, UniProt O74429, E248Q)
T1 construct: N-terminal kinase domain, residues 1-385
Test: PAGE kinase assay, toluidine blue staining
Assay type: biochemical
Conditions: 2 mM GTP, 0.5 mM 5-IP7, 5 mM MgCl2, pH 6.2, 37 °C; phosphate donor

Nc1nc2c(ncn2[C@@H]2O[C@H](COP(=O)(O)OP(=O)(O)OP(=O)(O)O)[C@@H](O)[C@H]2O)c(=O)[nH]1 [GTP]
PAGE kinase assay, toluidine blue staining: elicited a gain of function whereby GTP was enabled as a phosphate donor
